Reference: US10221177B2 (HYDRA BIOSCIENCES, INC., priority 2014, dated 2019)

Target: human TRPA1 (Homo sapiens (Human), UniProt O75762)
Experiment: In vitro inhibition of human TRPA1, whole cell patch configuration
Assay type: cell-based
Settings: current activation 10 μM AITC, tested concentrations 320 pM to 3.2 μM, read-out: hTRPA1 IC50
In short: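 Compound antagonism measured from voltage ramps (±100 or ±80 mV, 400 ms, every 4 s from −40 mV), analysed at −80 and 80 mV, or at constant −60 mV. HEPES-buffered NaCl bath, pH 7.4, EGTA or 2 mM Ca2+; temperature set by perfusion, within ±2° C; no junction-potential correction.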

human TRPA1, sequence (O75762 whole entry): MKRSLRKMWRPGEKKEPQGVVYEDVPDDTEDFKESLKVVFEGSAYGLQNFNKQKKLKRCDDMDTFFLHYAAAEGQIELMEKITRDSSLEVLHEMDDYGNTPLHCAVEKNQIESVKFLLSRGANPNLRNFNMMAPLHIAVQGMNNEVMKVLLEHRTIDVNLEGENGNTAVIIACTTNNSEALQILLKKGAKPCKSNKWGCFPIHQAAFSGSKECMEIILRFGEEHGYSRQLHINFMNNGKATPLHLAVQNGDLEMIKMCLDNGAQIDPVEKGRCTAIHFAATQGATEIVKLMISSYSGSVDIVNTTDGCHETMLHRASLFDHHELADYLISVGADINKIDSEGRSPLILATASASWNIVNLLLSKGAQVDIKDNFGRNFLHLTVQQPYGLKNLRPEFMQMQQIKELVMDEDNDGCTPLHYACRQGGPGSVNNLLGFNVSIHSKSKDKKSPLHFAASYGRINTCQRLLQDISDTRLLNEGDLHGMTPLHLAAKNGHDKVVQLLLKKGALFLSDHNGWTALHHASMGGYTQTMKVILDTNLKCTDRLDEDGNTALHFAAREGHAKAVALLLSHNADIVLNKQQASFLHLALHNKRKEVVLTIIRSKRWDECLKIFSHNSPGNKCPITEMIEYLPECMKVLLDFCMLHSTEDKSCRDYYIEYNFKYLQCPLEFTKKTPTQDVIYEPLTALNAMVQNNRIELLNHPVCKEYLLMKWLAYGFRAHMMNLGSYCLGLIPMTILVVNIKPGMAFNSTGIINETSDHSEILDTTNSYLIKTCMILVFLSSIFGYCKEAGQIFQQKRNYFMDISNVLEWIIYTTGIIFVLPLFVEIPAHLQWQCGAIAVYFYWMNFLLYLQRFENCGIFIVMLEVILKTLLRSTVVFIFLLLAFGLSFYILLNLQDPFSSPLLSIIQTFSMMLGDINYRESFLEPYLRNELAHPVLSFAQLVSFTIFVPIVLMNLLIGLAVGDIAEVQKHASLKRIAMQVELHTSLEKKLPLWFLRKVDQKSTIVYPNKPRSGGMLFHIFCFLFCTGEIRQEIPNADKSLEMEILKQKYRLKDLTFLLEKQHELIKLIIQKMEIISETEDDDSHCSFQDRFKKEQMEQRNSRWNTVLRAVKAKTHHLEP

Structure (SMILES) | IC50 [nM]
Cc1nc2c(c(=O)n(Cc3ccccn3)c(=O)n2C)n1CC(=O)Nc1cccc(-c2ccc(Cl)cc2)n1 [Compound 174, N-(6-(4-chlorophenyl)pyridin-2-yl)-2-(3,8-dimethyl-2,6-dioxo-1-(pyridin-2-ylmethyl)-2,3-dihydro-1H-purin-7(6H)-yl)acetamide] | 24
Cc1nc2c(c(=O)n(Cc3ccccn3)c(=O)n2C)n1CC(=O)Nc1cccc(-c2ccc(F)c(F)c2)n1 [Compound 175, N-(6-(3,4-difluorophenyl)pyridin-2-yl)-2-(3,8-dimethyl-2,6-dioxo-1-(pyridin-2-ylmethyl)-2,3-dihydro-1H-purin-7(6H)-yl)acetamide] | 54
Cc1nc2c(c(=O)n(Cc3ccccn3)c(=O)n2C)n1CC(=O)Nc1cccc(-c2cnc(C(F)(F)F)nc2)n1 [Compound 177, 2-(3,8-dimethyl-2,6-dioxo-1-(pyridin-2-ylmethyl)-2,3-dihydro-1H-purin-7(6H)-yl)-N-(6-(2-(trifluoromethyl)pyrimidin-5-yl)pyridin-2-yl)acetamide] | 42
Cn1c(=O)n(Cc2ccccn2)c(=O)c2c1ncn2CC(=O)Nc1csc(-c2ccc(F)c(F)c2)n1 [Compound 178, N-(2-(3,4-difluorophenyl)thiazol-4-yl)-2-(3-methyl-2,6-dioxo-1-(pyridin-2-ylmethyl)-2,3-dihydro-1H-purin-7(6H)-yl)acetamide] | 14
CC(=O)Cn1c(=O)c2c(ncn2CC(=O)Nc2cccc(-c3ccc(Cl)cc3)n2)n(C)c1=O [Compound 181, N-(6-(4-chlorophenyl)pyridin-2-yl)-2-(3-methyl-2,6-dioxo-1-(2-oxopropyl)-1,2,3,6-tetrahydropurin-7-yl)acetamide] | 19
CC(=O)Cn1c(=O)c2c(ncn2CC(=O)Nc2cccc(-c3ccc(F)c(F)c3)n2)n(C)c1=O [Compound 182, N-(6-(3,4-difluorophenyl)pyridin-2-yl)-2-(3-methyl-2,6-dioxo-1-(2-oxopropyl)-1,2,3,6-tetrahydropurin-7-yl)acetamide] | 42
Cn1c(=O)n(Cc2ccccn2)c(=O)c2c1ncn2CC(=O)Nc1cccc(-c2ccc(F)c(F)c2)n1 [Compound 187, N-(6-(3,4-difluorophenyl)pyridin-2-yl)-2-(3-methyl-2,6-dioxo-1-(pyridin-2-ylmethyl)-2,3-dihydro-1H-purin-7(6H)-yl)acetamide] | 74
Cn1c(=O)n(Cc2ccccn2)c(=O)c2c1ncn2CC(=O)Nc1cccc(-c2ccc(Cl)cc2)n1 [Compound 188, N-(6-(4-chlorophenyl)pyridin-2-yl)-2-(3-methyl-2,6-dioxo-1-(pyridin-2-ylmethyl)-2,3-dihydro-1H-purin-7(6H)-yl)acetamide] | 33
Cn1c(=O)n(Cc2ccccn2)c(=O)c2c1ncn2CC(=O)Nc1csc(-c2ccc(Cl)cc2)n1 [Compound 190] | 17
Cn1c(=O)n(Cc2ccccn2)c(=O)c2c1ncn2CC(=O)Nc1csc(-c2cnc(C(F)(F)F)nc2)n1 [Compound 191, 2-(3-methyl-2,6-dioxo-1-(pyridin-2-ylmethyl)-2,3-dihydro-1H-purin-7(6H)-yl)-N-(2-(2-(trifluoromethyl)pyrimidin-5-yl)thiazol-4-yl)acetamide] | 51
CC(=O)Cn1c(=O)c2c(nc(C)n2CC(=O)Nc2cccc(-c3ccc(Cl)cc3)n2)n(C)c1=O [Compound 192, N-(6-(4-chlorophenyl)pyridin-2-yl)-2-(3,8-dimethyl-2,6-dioxo-1-(2-oxopropyl)-1,2,3,6-tetrahydropurin-7-yl)acetamide] | 33
CC(=O)Cn1c(=O)c2c(nc(C)n2CC(=O)Nc2cccc(-c3ccc(F)c(F)c3)n2)n(C)c1=O [Compound 193, N-(6-(3,4-difluorophenyl)pyridin-2-yl)-2-(3,8-dimethyl-2,6-dioxo-1-(2-oxopropyl)-1,2,3,6-tetrahydropurin-7-yl)acetamide] | 45
Cc1cc(Cn2c(=O)c3c(ncn3CC(=O)Nc3cccc(N4CCC(F)(F)CC4)n3)n(C)c2=O)no1 [Compound 196, N-(6-(4,4-difluoropiperidin-1-yl)pyridin-2-yl)-2-(3-methyl-1-((5-methylisoxazol-3-yl)methyl)-2,6-dioxo-2,3-dihydro-1H-purin-7(6H)-yl)acetamide] | 122
Cc1cc(Cn2c(=O)c3c(ncn3CC(=O)Nc3cccc(N4CC(F)(F)C4)n3)n(C)c2=O)no1 [Compound 197, N-(6-(3,3-difluoroazetidin-1-yl)pyridin-2-yl)-2-(3-methyl-1-((5-methylisoxazol-3-yl)methyl)-2,6-dioxo-2,3-dihydro-1H-purin-7(6H)-yl)acetamide] | 294
Cc1cc(Cn2c(=O)c3c(ncn3CC(=O)Nc3ccc4ccccc4n3)n(C)c2=O)no1 [Compound 199, 2-(3-Methyl-1-((5-methylisoxazol-3-yl)methyl)-2,6-dioxo-2,3-dihydro-1H-purin-7(6H)-yl)-N-(quinolin-2-yl)acetamide] | 404
Cc1cc(Cn2c(=O)c3c(ncn3CC(=O)Nc3ccc(Br)c(C(F)(F)F)n3)n(C)c2=O)no1 [Compound 200, N-(5-bromo-6-(trifluoromethyl)pyridin-2-yl)-2-(3-methyl-1-((5-methyl-isoxazol-3-yl)methyl)-2,6-dioxo-2,3-dihydro-1H-purin-7(6H)-yl)acetamide] | 34

Now from value to molecule:

IC50 [nM] | Structure (SMILES)
12 | CC#CCn1c(=O)c2c(ncn2[C@@H](C)C(=O)Nc2cccc(-c3cnc(N4CC5CC5C4)nc3)n2)n(C)c1=O (stereo partly drawn) [Compound 168, (2S)—N-(6-(2-(3-azabicyclo[3.1.0]hexan-3-yl)pyrimidin-5-yl)pyridin-2-yl)-2-(1-(but-2-yn-1-yl)-3-methyl-2,6-dioxo-2,3-dihydro-1H-purin-7(6H)-yl)propanamide]
10 | CC#CCn1c(=O)c2c(ncn2[C@@H](C)C(=O)Nc2cccc(-c3cnc(N4CC5C(C4)C5(F)F)nc3)n2)n(C)c1=O (stereo partly drawn) [Compound 169, (2S)-2-(1-(but-2-yn-1-yl)-3-methyl-2,6-dioxo-2,3-dihydro-1H-purin-7(6H)-yl)-N-(6-(2-(6,6-difluoro-3-azabicyclo[3.1.0]hexan-3-yl)pyrimidin-5-yl)pyridin-2-yl)propanamide]
27 | Cc1nc(Cn2c(=O)c3c(ncn3[C@@H](C)C(=O)Nc3cncc(-c4cnc(C)c(C(F)(F)F)c4)n3)n(C)c2=O)no1 [Compound 170, (S)-2-(3-methyl-1-((5-methyl-1,2,4-oxadiazol-3-yl)methyl)-2,6-dioxo-2,3-dihydro-1H-purin-7(6H)-yl)-N-(6-(6-methyl-5-(trifluoromethyl)pyridin-3-yl)pyrazin-2-yl)propanamide]
23 | Cc1nc(Cn2c(=O)c3c(ncn3[C@@H](C)C(=O)Nc3cccc(-c4cnc(C(F)(F)F)nc4)n3)n(C)c2=O)no1 [Compound 171, (S)-2-(3-methyl-1-((5-methyl-1,2,4-oxadiazol-3-yl)methyl)-2,6-dioxo-2,3-dihydro-1H-purin-7(6H)-yl)-N-(6-(2-(trifluoromethyl)pyrimidin-5-yl)pyridin-2-yl)propanamide]
6 | CC#CCn1c(=O)c2c(ncn2[C@@H](C)C(=O)Nc2ccnc(-c3cnc(N4CC5CC5C4)nc3)n2)n(C)c1=O (stereo partly drawn) [Compound 173, (2S)—N-(2′-(3-azabicyclo[3.1.0]hexan-3-yl)-[2,5′-bipyrimidin]-4-yl)-2-(1-(but-2-yn-1-yl)-3-methyl-2,6-dioxo-2,3-dihydro-1H-purin-7(6H)-yl)propanamide]
3 | CC(=O)Cn1c(=O)c2c(ncn2CC(=O)Nc2cccc(-c3cnc(N4CCC[C@H]4C(F)(F)F)nc3)n2)n(C)c1=O [Compound 183, (S)-2-(3-methyl-2,6-dioxo-1-(2-oxopropyl)-1,2,3,6-tetrahydropurin-7-yl)-N-(6-(2-(2-(trifluoromethyl)pyrrolidin-1-yl)pyrimidin-5-yl)pyridin-2-yl)acetamide]
310 | CC(O)Cn1c(=O)c2c(ncn2CC(=O)Nc2cccc(-c3cnc(N4CCC[C@H]4C(F)(F)F)nc3)n2)n(C)c1=O (stereo partly drawn) [Compound 184, 2-(1-(2-hydroxypropyl)-3-methyl-2,6-dioxo-1,2,3,6-tetrahydropurin-7-yl)-N-(6-(2-((S)-2-(trifluoromethyl)pyrrolidin-1-yl)pyrimidin-5-yl)pyridin-2-yl)acetamide]
45 | CC(=O)Cn1c(=O)c2c(ncn2CC(=O)Nc2cccc(-c3cnc(C(F)(F)F)nc3)n2)n(C)c1=O [Compound 185, 2-(3-methyl-2,6-dioxo-1-(2-oxopropyl)-2,3-dihydro-1H-purin-7(6H)-yl)-N-(6-(2-(trifluoromethyl)pyrimidin-5-yl)pyridin-2-yl)acetamide]
74 | Cn1c(=O)n(Cc2ccccn2)c(=O)c2c1ncn2CC(=O)Nc1cccc(-c2cnc(C(F)(F)F)nc2)n1 [Compound 186, 2-(3-methyl-2,6-dioxo-1-(pyridin-2-ylmethyl)-2,3-dihydro-1H-purin-7(6H)-yl)-N-(6-(2-(trifluoromethyl)pyrimidin-5-yl)pyridin-2-yl)acetamide]
2 | Cn1c(=O)n(Cc2ccccn2)c(=O)c2c1ncn2CC(=O)Nc1cccc(-c2cnc(N3CCC[C@H]3C(F)(F)F)nc2)n1 [Compound 189, (S)-2-(3-methyl-2,6-dioxo-1-(pyridin-2-ylmethyl)-2,3-dihydro-1H-purin-7(6H)-yl)-N-(6-(2-(2-(trifluoromethyl)pyrrolidin-1-yl)pyrimidin-5-yl)pyridin-2-yl)acetamide]
62 | CC(=O)Cn1c(=O)c2c(nc(C)n2CC(=O)Nc2cccc(-c3cnc(C(F)(F)F)nc3)n2)n(C)c1=O [Compound 194, 2-(3,8-dimethyl-2,6-dioxo-1-(2-oxopropyl)-1,2,3,6-tetrahydropurin-7-yl)-N-(6-(2-(trifluo-romethyl)pyrimidin-5-yl)pyridin-2-yl)acetamide]
3 | CC(=O)Cn1c(=O)c2c(nc(C)n2CC(=O)Nc2cccc(-c3cnc(N4CCC[C@H]4C(F)(F)F)nc3)n2)n(C)c1=O [Compound 195]
